The data set has as its system live anesthetized rats. The settings on record: rat, in vivo.

As for `CNCC(O)c1ccc(O)c(O)c1` (stereo not shown) [Adrenalin], the rhythm disturbances result is “induced rhythm disturbances”.

(Values after patent publication US20140323414A1 (priority 2011, published 2014).)
